Measured values published in BigSolDB 2.1.

COc1cc(/C=C/c2ccc(O)cc2)cc(OC)c1
Conditions	solubility (mole fraction)
in PEG-400, 298.2 K	0.346
in PEG-400, 303.2 K	0.351
in PEG-400, 308.2 K	0.358
in PEG-400, 313.2 K	0.366
in PEG-400, 318.2 K	0.373

solubility (mole fraction)
Conditions	298.2 K	303.2 K	308.2 K	313.2 K	318.2 K
in ethanol	0.113	0.117	0.124	0.129	0.136
in propylene glycol	0.25	0.26	0.272	0.281	0.29
in transcutol	0.23	0.235	0.241	0.248	0.253
in water	1.27e-06	1.62e-06	2.04e-06	2.53e-06	2.95e-06
